Experimental data published in paper PMC3202625, “Pyruvate Kinase Triggers a Metabolic Feedback Loop that Controls Redox Metabolism in Respiring Cells” (Cell Metabolism, 2011).

Key:
yeast TPI (endogenous) [1] = biological target: T1, yeast TPI (endogenous) (Saccharomyces cerevisiae, UniProt P00942); experiment: TPI activity assay, Michaelis-Menten kinetics; type: biochemical; details: yeast extract, no PEP
T1 construct: gene TPI1; endogenous full-length enzyme in yeast extract, activity normalized to total cellular protein; homodimer
T1 sequence (P00942 2-248): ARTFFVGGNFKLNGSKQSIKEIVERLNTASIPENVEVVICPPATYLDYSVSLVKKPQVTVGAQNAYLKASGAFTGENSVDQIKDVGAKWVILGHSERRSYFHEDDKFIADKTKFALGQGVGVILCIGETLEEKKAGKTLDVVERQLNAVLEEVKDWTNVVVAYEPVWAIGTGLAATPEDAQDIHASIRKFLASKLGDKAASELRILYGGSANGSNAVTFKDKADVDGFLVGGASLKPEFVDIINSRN

yeast TPI (endogenous) [2] = biological target: T1, yeast TPI (endogenous); experiment: TPI activity assay, PEP titration; type: cell-based; details: substrate gly3p, yeast extract
Description: TPI activity assay, PEP titration on yeast TPI (endogenous) | IC50 values and the inhibitory constant Ki are given in μM

[3] = biological target: T2, human TPI (expressed in yeast) (Homo sapiens, UniProt P60174); experiment: TPI activity assay, PEP titration; type: cell-based
T2 construct: gene TPI1; human TPI expressed in transgenic yeast lacking endogenous TPI1; extract, activity normalized to total cellular protein; homodimer
Description: TPI activity assay, PEP titration on human TPI (expressed in yeast) | IC50 values and the inhibitory constant Ki are given in μM

[4] = biological target: T3, rabbit TPI (purified from muscle) (Oryctolagus cuniculus, UniProt P00939); experiment: TPI activity assay, PEP titration; type: biochemical
T3 construct: gene TPI1; native enzyme purified from rabbit muscle; homodimer
Description: TPI activity assay, PEP titration on rabbit TPI (purified from muscle) | IC50 values and the inhibitory constant Ki are given in μM

[5] = biological target: T3, rabbit TPI (purified from muscle); experiment: TPI activity assay, PEP titration; Ki by Cheng-Prusoff equation; type: biochemical
yeast TPI (endogenous) [6] = biological target: T1, yeast TPI (endogenous); experiment: as above; type: biochemical; details: substrate gly3p, yeast extract
[7] = biological target: T2, human TPI (expressed in yeast); experiment: as above; type: biochemical

T3 sequence (P00939 2-249): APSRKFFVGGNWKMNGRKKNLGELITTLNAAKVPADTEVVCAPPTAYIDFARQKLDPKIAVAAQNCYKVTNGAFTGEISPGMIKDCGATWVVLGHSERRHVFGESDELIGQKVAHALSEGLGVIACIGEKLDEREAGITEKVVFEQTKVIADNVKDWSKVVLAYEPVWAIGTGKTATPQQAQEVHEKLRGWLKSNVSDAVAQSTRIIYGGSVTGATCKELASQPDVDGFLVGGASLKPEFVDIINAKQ
T2 sequence (P60174 2-249): as the sequence (P00939 2-249) above, with K19Q, N20S, T26G, S118A counted along it

| IC50 (yeast TPI (endogenous) [2]) [µM] | IC50 [3] [µM] | IC50 [4] [µM] | Ki [5] [µM] | Ki (yeast TPI (endogenous) [6]) [µM] | Ki [7] [µM] | Compound | Km (yeast TPI (endogenous) [1]) [µM] |
| --- | --- | --- | --- | --- | --- | --- | --- |
|  |  |  |  |  |  | O=C[C@H](O)COP(=O)(O)O [gly3p] | 854 |
| 1130 | 531 | 515 | 156 | 392 | 163 | C=C(OP(=O)(O)O)C(=O)O [PEP] |  |
